We go through 2 substances from patent US20250263434A1, “OLIGOPEPTIDE HAVING BLOOD PRESSURE REDUCING EFFECT, AND PREPARATION METHOD THEREFOR AND APPLICATION THEREOF” (South China Agricultural University, priority 2020, published 2025).

The test system of this test is ACE. The experiment in a line: Determination of ACE inhibitory activity (HHL substrate, hippuric acid measured by HPLC). Format: biochemical. The following applies: for IC50: ACE inhibition, IC50 found from the inhibition rate vs concentration curve. How it is done: (2) Determination Method of ACE Inhibitory Activity
10 μL of ACE solution (0.25 U/mL, ACE enzyme was dissolved into pH 7 potassium phosphate buffer) was respectively added into a sample tube (B) and a blank tube (A), 10 μL of ACEI was added into the sample tube, 10 μL of buffer was added into the blank tube, samples were incubated for 5 min at 37° C., then 30 μL of HHL solution ([…], HHL was dissolved into pH 8.3 0.1 mol·L^−1 borate buffer, containing 0.3 mol·L^−1 NaCl) was added, the above materials reacted for 1 h at 37° C., and then 80 μL of 1.0 mol/L HCl was added to terminate the reaction, so as to obtain a reaction solution, seen in Table 2.
Mobile phase and chromatographic conditions: acetonitrile: ultrapure water=25:75 (including 0.1% (V/V) TFA), flow rate: 1 mL/min; detection wavelength: 228 nm; column temperature: 30° C.; injection volume: 20 μL.
Principle: HHL was rapidly decomposed under the catalysis of ACE to produce hippuric acid (Hip) and dipeptide (His-Leu, HL). Hippuric acid has the maximum absorption at 228 nm. When ACEI samples were added, the activity of the ACE enzyme was inhibited and the production amount of hippuric acid was reduced. Therefore, the inhibition rate of ACEI on ACE activity can be evaluated by measuring the production amount of hippuric acid by HPLC.
In the formula, R: an inhibition rate (%) of ACEI sample on ACE; • A: a peak area of hippuric acid in control group • B: a peak area of hippuric acid in ACEI addition group • A0: a peak area of hippuric acid in blank group
Where, IC50 is defined as a concentration of an inhibitor required when a half of ACE enzyme activity is inhibited under certain conditions. There was no a linear relationship between the inhibition rate and the concentration of the formulation, and therefore a curve of a relationship between the inhibition rate and the concentration of the formulation was firstly plotted, and then IC50 was found out from the curve. […]

In general, IC50 refers to the concentration that inhibits the measured activity by half. As for “LIIPEH [Artificially synthesized monomer H6, Leu-Ile-Ile-Pro-Glu-His, Synthesized LIIPEH by Shanghai jiepeptide Biotechnology Co., Ltd]”, the concentration for half-maximal inhibition (IC50) stood at 56.67 ± 12.02 µg/mL.

“LIIPEH [RP-HCLP separated monomer H6, Leu-Ile-Ile-Pro-Glu-His, Oligopeptide LIIPEH separated and purified from rice wine lees]” displayed an IC50 (listed as oligopeptide) of 280.00 ± 5.77 µg/mL. The “inhibition rate on ACE” value (concentration of the sample 1 mg/mL) is 91.72%.
